Earlier results as cited in patent US20090192128A1 (priority 2005, published 2009).
Where a name gives a salt, the structure may show the parent alone.

For `NNc1nncc2ccccc12` [Hydralazine hydrochloride, hydralazine hydrochloride], the solubility in alcohol (alcohol) is listed as “slightly soluble”, the solubility in ether (ether) is listed as “very slightly soluble” and the solubility in water is listed as “soluble”.
For `O=[N+]([O-])O[C@H]1CO[C@H]2[C@@H]1OC[C@H]2O[N+](=O)[O-]` [Diluted isosorbide dinitrate, 1,4,3,6-dianhydro-D-glucitol-2,5-dinitrate], the “solubility in organic solvents” value (organic solvents such as ethanol, ether and chloroform) is listed as “freely soluble” and the solubility in water is listed as “sparingly soluble”.
